Measured values: US20230255219A1, “SLOW RELEASE COMPOSITE ACTIVE FILMS/PACKAGING TO REDUCE FOODBORNE PATHOGENS AND IMPROVE SHELF LIFE OF RAW AND READY TO EAT FOODS” (The Penn State Research Foundation, priority 2019, published 2023)

Legend:
Salmonella spp. cocktail [1] = experiment: Minimum bactericidal concentration (MBC), plating of wells on selective media; format: cell-based
Method: (§1) A resazurin indicator-based, 96-well microplate dilution method (Elshikh et al., 2016) was used for in vitro determination of MIC and MBC of LAE, nisin and thymol against different foodborne pathogens. Overnight cultures were grown in TSB (37° C.) and a cocktail of STEC, Salmonella spp., L. monocytogenes and S. aureus was prepared by mixing equal volumes of the three corresponding strains to obtain approximately 8 log10 CFU/mL of the pathogens. Bacterial cells were washed by centrifugation at 8000 rpm/10 minutes, and cell pellets were re-suspended in the same volume of sterile Mueller Hinton Broth (MHB; Difco).
(§2) FIG. 1 illustrates the resazurin indicator-based, 96-well microplate dilution method for MIC determination of different antimicrobials against bacterial cocktails. A 100,000 IU/mL concentration of nisin (VWR) was dissolved in HCl 0.02N; 10% thymol (VWR) was prepared in concentrated ethanol; and 10% LAE (MB) was prepared in sterile distilled water. All antimicrobials were sterilized by filtration through a 0.22 μm filter (Pall; Ann Arbor, Mich.).). Each antimicrobial was diluted in sterile MHB to obtain a final concentration of 50,000 IU/mL of nisin, 5% thymol, and 5% LAE. Using a multi-channel pipette (Eppendorf; Haoppauge, N.Y.), one hundred μL of each antimicrobial in MHB was dispensed into a row in a 96-well microplate. Subsequent serial dilutions of the antimicrobials were made in MHB using the multi-channel pipette by transferring and mixing 50 μL of each compound to obtain antimicrobial concentrations of nisin (50,000-390.6 IU/mL), thymol (5-0.039%) and LAE (5-0.039%). Bacterial cocktails were diluted 1:100 in a sterile MHB to reach a concentration of approximately 6 log10 CFU/mL, with 50 μL of each cocktail added to the respective well. […]
(§3) The MBC was determined by directly inoculating the content of wells with concentrations higher than the MIC value on selective growth media. […] The MBC value was determined as the lowest concentration when there were no bacterial colonies observed (Elshikh et al., 2016).

[2] = tested on: all tested bacterial pathogens (STEC, Salmonella spp., L. monocytogenes, S. aureus); format: cell-based
[3] = cited from earlier work
STEC cocktail [4] = format: cell-based
S. aureus cocktail [5] = format: cell-based, Staphylococcus aureus
Salmonella spp. cocktail [6] = format: cell-based
[7] = tested on: L. monocytogenes cocktail; format: cell-based, Listeria monocytogenes
[8] = tested on: L. monocytogenes cocktail; experiment: Minimum bactericidal concentration (MBC), plating of wells on selective media; format: cell-based, Listeria monocytogenes
Method: as §1, §2, §3

S. aureus cocktail [9] = experiment: as above; format: cell-based, Staphylococcus aureus
Method: as §1, §2, §3

STEC cocktail [10] = format: cell-based; remark: listed apart in the source

CCCCCCCCCCCC(=O)N[C@@H](CCCN=C(N)N)C(=O)OCC [LAE, lauric arginate]
MBC, LAE (Salmonella spp. cocktail [1]): 0.625 % (V/V)
concentration of LAE that inhibited all tested bacterial pathogens [2]: 0.078%
metabolism of LAE in the human body [3]: rapidly metabolized in the human body to lauric acid and arginine
MIC, LAE (STEC cocktail [4]; 24 h at 37° C.): 0.078 % (V/V)
MIC, LAE (S. aureus cocktail [5]; 24 h at 37° C.): 0.078 % (V/V)
MIC, LAE (Salmonella spp. cocktail [6]; 24 h at 37° C.): 0.078 % (V/V)
MIC, LAE ([7]; 24 h at 37° C.): 0.078 % (V/V)
MBC, LAE [8]: 0.313 % (V/V)
MBC, LAE (S. aureus cocktail [9]): 0.313 % (V/V)

Cc1ccc(C(C)C)c(O)c1 [Thymol, thymol]
MBC, Thymol (Salmonella spp. cocktail [1]): 2.5 % (W/V)
MIC, Thymol (STEC cocktail [4]): 1.25 % (W/V)
MIC, Thymol (S. aureus cocktail [5]): 0.156 % (W/V)
MIC, Thymol (Salmonella spp. cocktail [6]): 0.625 % (W/V)
MIC, Thymol [7]: 0.625 % (W/V)
MBC, Thymol (STEC cocktail [10]): 2.5 % (W/V)
MBC, Thymol [8]: 1.25 % (W/V)
MBC, Thymol (S. aureus cocktail [9]): 1.25 % (W/V)

nisin
MBC, Nisin (Salmonella spp. cocktail [1]): Nil (Nil indicates there was no growth inhibition, nor killing effect at ≤ 50,000 IU/mL)
antibacterial activity of nisin in MIC and MBC experiments [2]: very poor antibacterial activity
MIC, Nisin (STEC cocktail [4]; 24 h at 37° C.): Nil (key: Nil indicates there was no growth inhibition, nor killing effect at ≤ 50,000 IU/mL)
MIC, Nisin (S. aureus cocktail [5]; 24 h at 37° C.): Nil (key: Nil indicates there was no growth inhibition, nor killing effect at ≤ 50,000 IU/mL)
MIC, Nisin (Salmonella spp. cocktail [6]; 24 h at 37° C.): Nil (key: Nil indicates there was no growth inhibition, nor killing effect at ≤ 50,000 IU/mL)
MIC, Nisin ([7]; 24 h at 37° C.): Nil (key: Nil indicates there was no growth inhibition, nor killing effect at ≤ 50,000 IU/mL)
MBC, Nisin (STEC cocktail [10]): Nil (key: Nil indicates there was no growth inhibition, nor killing effect at ≤ 50,000 IU/mL)
MBC, Nisin [8]: Nil (Nil indicates there was no growth inhibition, nor killing effect at ≤ 50,000 IU/mL)
MBC, Nisin (S. aureus cocktail [9]): Nil (Nil indicates there was no growth inhibition, nor killing effect at ≤ 50,000 IU/mL)
